{"source": "patent US11959083B2", "about": "“Immunosuppression-reverting oligonucleotides inhibiting the expression of CD39” (Secarna Pharmaceuticals GmbH & Co. KG, priority 2016, dated 2024)", "key": {"hCD39 mRNA": {"tested_on": "hCD39 mRNA", "assay": "IC50 determination / concentration-dependent hCD39 mRNA knockdown in HDLM-2 cells", "type": "cell-based, human", "details": "for mRNA inhibition: HDLM-2, 3 days; for pIC50: hCD39 mRNA, 3 days", "procedure,_shortened": "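Antisense oligonucleotides applied to HDLM-2 cells for 3 days, titrated 10 μM down to 4.5 nM. hCD39 mRNA normalized to HPRT1 and expressed as residual level relative to untreated cells (100); mean of triplicates, IC50 from concentration-response.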"}, "hCD39 protein": {"tested_on": "hCD39 protein", "assay": "hCD39 protein expression in primary human CD8+ and CD4+ T cells after oligonucleotide removal (flow cytometry)", "type": "cell-based", "details": "10 μM for six days with anti-CD3, compared to untreated control cells", "protocol": "Thereafter, oligonucleotides and anti-CD3 were removed and hCD39 protein expression was analyzed by flow cytometry three, six, and eleven days after oligonucleotide removal. CD39 protein expression is depicted as mean fluorescence intensity (MFI) and was calculated by subtracting the MFI of the unspecific isotype control from the MFI of CD39. Depicted is the mean of duplicate wells+/−SD.\nA04040H had shown very potent activity in suppressing hCD39 expression on mRNA- and protein-level in human cancer cell lines. In the next step, its activity in primary human T cells was investigated. Furthermore, the persistence of the effects after antisense oligonucleotide removal was examined. Therefore, CD8^+ and CD4^+ T cells were isolated from peripheral blood and activated for a total treatment time of six days with anti-CD3 in the presence of 10 μM of the hCD39 specific antisense oligonucleotide A04040H (black column) or the control oligonucleotide S6 (white column), which is not complementary to any human mRNA. […] Thereafter, oligonucleotides were removed and hCD39 protein expression was analyzed three, six, and eleven days after oligonucleotide removal by flow cytometry (FIG. 9)."}, "CD39 protein": {"tested_on": "CD39 protein", "assay": "CD39 protein expression in human CD8+ T cells (flow cytometry, Example 11)", "type": "cell-based", "details": "5 μM, 5 days, anti-CD3", "protocol": "FIG. 12A-12C depict human CD8^+ T cells which were labelled with cell proliferation dye, activated with anti-CD3 and treated with 5 μM of the antisense oligonucleotide A04040H (black column) or the control oligonucleotide S6 (white column) for a total treatment time of 5 days. In the vehicle control (striped column), cells were activated with anti-CD3 only. Subsequently, 400 μM of ATP or vehicle were added to cells on day 3 and day 4 after start of oligonucleotide treatment. Furthermore, as additional control, the small molecular CD39-inhibitor ARL67156 trisodium salt was added at 20 μM to cells on day 4, for an incubation time of 24 h (checked column). On day 5 after start of oligonucleotide treatment, (FIG. 12A) CD39 protein expression, (FIG. 12B) proliferation and (FIG. 12C) absolute cell numbers of CD8^+ T cells were analyzed using Flow Cytometry. Depicted is the mean of triplicate wells+/−SD.\nIn cancer, ATP is released from tumor cells for example after cell death induced by chemotherapy or radiation therapy. Since the CD39-CD73 axis plays an important role for T cell function the effects of A04040H on T cell proliferation in the presence or absence of extracellular ATP were investigated. […] On day 5 after start of oligonucleotide treatment, CD39 protein expression, proliferation, and absolute cell numbers of CD8^+ T cells were analyzed using Flow Cytometry."}}, "note": "pIC50: −log10 of the molar value. l = locked nucleic acid (LNA); d = 2'-deoxy (DNA)", "data": [{"substance": "+G*+T*+T*T*G*T*G*T*G*A*G*A*G*C*+T*+T (antisense GTTTGTGTGAGAGCTT; sugars from the 5' end l3 d11 l2, all phosphorothioate, methylation of C not given here) [A04040H]", "values": [{"measurement": "mRNA inhibition", "setting": "hCD39 mRNA; 0.45 nM, Table 12", "value": 0.00, "unit": "%"}, {"measurement": "mRNA inhibition", "setting": "hCD39 mRNA; 1.3 nM, Table 12", "value": 0.00, "unit": "%"}, {"measurement": "mRNA inhibition", "setting": "hCD39 mRNA; 4 nM, Table 12", "value": 0.00, "unit": "%"}, {"measurement": "mRNA inhibition", "setting": "hCD39 mRNA; 0.0045 μM, Table 8", "value": 22.64, "unit": "%"}, {"measurement": "mRNA inhibition", "setting": "hCD39 mRNA; 0.0045 μM, Table 9", "value": 12.51, "unit": "%"}, {"measurement": "mRNA inhibition", "setting": "hCD39 mRNA; 12 nM, Table 12", "value": 0.00, "unit": "%"}, {"measurement": "mRNA inhibition", "setting": "hCD39 mRNA; 0.013 μM, Table 8", "value": 40.51, "unit": "%"}, {"measurement": "mRNA inhibition", "setting": "hCD39 mRNA; 0.013 μM, Table 9", "value": 36.68, "unit": "%"}, {"measurement": "mRNA inhibition", "setting": "hCD39 mRNA; 0.04 μM, Table 8", "value": 62.42, "unit": "%"}, {"measurement": "mRNA inhibition", "setting": "hCD39 mRNA; 0.04 μM, Table 9", "value": 74.68, "unit": "%"}, {"measurement": "mRNA inhibition", "setting": "hCD39 mRNA; 40 nM, Table 12", "value": 27.56, "unit": "%"}, {"measurement": "mRNA inhibition", "setting": "hCD39 mRNA; 110 nM, Table 12", "value": 69.84, "unit": "%"}, {"measurement": "mRNA inhibition", "setting": "hCD39 mRNA; 0.12 μM, Table 8", "value": 88.40, "unit": "%"}, {"measurement": "mRNA inhibition", "setting": "hCD39 mRNA; 0.12 μM, Table 9", "value": 93.14, "unit": "%"}, {"measurement": "mRNA inhibition", "setting": "hCD39 mRNA; 330 nM, Table 12", "value": 91.26, "unit": "%"}, {"measurement": "mRNA inhibition", "setting": "hCD39 mRNA; 0.4 μM, Table 8", "value": 95.94, "unit": "%"}, {"measurement": "mRNA inhibition", "setting": "hCD39 mRNA; 0.4 μM, Table 9", "value": 98.42, "unit": "%"}, {"measurement": "mRNA inhibition", "setting": "hCD39 mRNA; 1000 nM, Table 12", "value": 97.06, "unit": "%"}, {"measurement": "mRNA inhibition", "setting": "hCD39 mRNA; 1.1 μM, Table 8", "value": 98.54, "unit": "%"}, {"measurement": "mRNA inhibition", "setting": "hCD39 mRNA; 1.1 μM, Table 9", "value": 99.38, "unit": "%"}, {"measurement": "mRNA inhibition", "setting": "hCD39 mRNA; 3.3 μM, Table 8", "value": 99.01, "unit": "%"}, {"measurement": "mRNA inhibition", "setting": "hCD39 mRNA; 3.3 μM, Table 9", "value": 99.32, "unit": "%"}, {"measurement": "mRNA inhibition", "setting": "hCD39 mRNA; 10 μM, Table 8", "value": 98.98, "unit": "%"}, {"measurement": "mRNA inhibition", "setting": "hCD39 mRNA; 10 μM, Table 9", "value": 99.57, "unit": "%"}, {"measurement": "maximal target inhibition (hCD39 mRNA)", "setting": "hCD39 mRNA; HDLM-2 cells, compared to untreated cells, first IC50 determination", "value": 99, "unit": "%"}, {"measurement": "pIC50", "setting": "hCD39 mRNA; HDLM-2 cells, first screening round (Table 8)", "value": 7.60}, {"measurement": "pIC50", "setting": "hCD39 mRNA; HDLM-2 cells, second screening round (Table 9)", "value": 7.67}, {"measurement": "pIC50", "setting": "hCD39 mRNA; HDLM-2 cells, third screening round (Table 12)", "value": 7.28}, {"measurement": "hCD39 protein expression (MFI) after oligonucleotide removal", "setting": "hCD39 protein", "value": "significantly suppressed hCD39 protein expression for a duration of at least six days after removal"}, {"measurement": "CD39 protein expression", "setting": "CD39 protein", "value": "potently suppressed"}]}]}
